Values of other authors as cited in US20120142750A1, “INDOLEAMINE 2,3-DIOXYGENASE PATHWAYS IN THE GENERATION OF REGULATORY T CELLS” (Regents of the University of Minnesota, priority 2005, published 2012).

Target: IDO (Homo sapiens, UniProt P14902)
Conditions: approximate literature value; cited from earlier work

IDO, sequence (P14902 whole entry): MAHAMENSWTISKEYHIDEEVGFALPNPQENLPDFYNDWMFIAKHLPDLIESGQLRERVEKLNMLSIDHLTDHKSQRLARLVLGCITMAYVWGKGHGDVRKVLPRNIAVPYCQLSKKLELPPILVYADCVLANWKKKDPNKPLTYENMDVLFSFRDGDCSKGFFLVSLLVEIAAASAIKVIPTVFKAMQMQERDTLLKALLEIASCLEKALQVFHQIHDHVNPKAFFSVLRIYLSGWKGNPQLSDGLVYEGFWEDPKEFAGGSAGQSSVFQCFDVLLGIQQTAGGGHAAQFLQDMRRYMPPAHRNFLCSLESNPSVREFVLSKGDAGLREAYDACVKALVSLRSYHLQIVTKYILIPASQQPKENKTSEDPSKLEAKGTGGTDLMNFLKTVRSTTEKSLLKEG

Structure (SMILES): O=C1C2=C(Nc3cc([N+](=O)[O-])ccc3N2)OC1c1ccc(C2OC3=C(Nc4ccc([N+](=O)[O-])cc4N3)C2=O)cc1 (stereo not shown) [Inhibitor V]
- EC50: ~1 µM
